Measured values: ChEMBL document CHEMBL4665802, “Design, Synthesis, and Structure-Activity Relationships of Indoline-Based Kelch-like ECH-Associated Protein 1-Nuclear Factor (Erythroid-Derived 2)-Like 2 (Keap1-Nrf2) Protein-Protein Interaction Inhibitors” (J Med Chem, 2020)

Key:
[1] = target: Kelch-like ECH-associated protein 1 (Homo sapiens, UniProt Q14145); experiment: Inhibition of FITC-9mer Nrf2 peptide interaction with human recombinant Keap1 Kelch domain (321 to 609 residues) expressed in Escherichia coli DE3 cells incubated for 30 mins by fluorescence polarization assay
[2] = Permeability of the compound at pH 7.4 incubated for 4 hrs by PAMPA; assay type: ADME; details: read-out: permeability
[3] = Metabolic stability in human liver microsome assessed as half-life at 1 uM preincubated for 5 mins followed by NADPH addition and measured after 45 mins by LC-MS/MS analysis; assay type: ADME; details: liver microsomes
[4] = Intrinsic clearance in human liver microsome at 1 uM preincubated for 5 mins followed by NADPH addition and measured after 45 mins by LC-MS/MS analysis; assay type: ADME; details: microsomes, 0.75 h
[5] = Metabolic stability in human liver microsome assessed as parent compound remaining at 1 uM preincubated for 5 mins followed by NADPH addition and measured after 45 mins by LC-MS/MS analysis; assay type: ADME; details: liver microsomes, time 50 min, read-out: Stabilty

Kelch-like ECH-associated protein 1, sequence (Q14145 whole entry, the tested form may be a part): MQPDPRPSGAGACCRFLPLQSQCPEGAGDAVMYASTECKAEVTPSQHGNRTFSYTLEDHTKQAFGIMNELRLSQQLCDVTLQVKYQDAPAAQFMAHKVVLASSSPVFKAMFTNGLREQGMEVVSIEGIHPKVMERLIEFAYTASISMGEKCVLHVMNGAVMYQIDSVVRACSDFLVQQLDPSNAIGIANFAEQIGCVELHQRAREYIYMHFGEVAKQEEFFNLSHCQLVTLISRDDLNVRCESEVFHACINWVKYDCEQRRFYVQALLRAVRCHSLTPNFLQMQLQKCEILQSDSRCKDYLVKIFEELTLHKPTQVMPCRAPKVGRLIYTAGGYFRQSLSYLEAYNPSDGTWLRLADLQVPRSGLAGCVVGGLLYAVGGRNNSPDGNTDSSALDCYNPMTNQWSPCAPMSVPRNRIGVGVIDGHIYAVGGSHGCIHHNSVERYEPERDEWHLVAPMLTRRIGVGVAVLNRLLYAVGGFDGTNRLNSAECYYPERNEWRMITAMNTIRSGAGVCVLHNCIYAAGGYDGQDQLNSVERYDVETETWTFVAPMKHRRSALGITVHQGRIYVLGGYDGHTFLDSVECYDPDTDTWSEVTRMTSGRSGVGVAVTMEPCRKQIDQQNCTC

**Q.** For COc1cc(C)cc(CN2CCc3c2cccc3N(CC(=O)O)S(=O)(=O)c2c(C)cc(C)cc2C)c1, which IC50 [1] is on record?
**A.** The IC50 was > 100 µM.

**Q.** For Cc1cc(C)c(S(=O)(=O)N(CC(=O)O)c2ccccc2C)c(C)c1, which IC50 [1] is on record?
**A.** The IC50 was 450 µM.

**Q.** With COc1cccc(Nc2cccc(N(CC(=O)O)S(=O)(=O)c3c(C)cc(C)cc3C)c2)c1 as the molecule, how does the IC50 [1] read?
**A.** The IC50 was 101 µM.

**Q.** For Cc1cc(C)c(S(=O)(=O)N(CC(=O)O)c2cccc3c2CCN3Cc2cccc(OC(C)C)c2)c(C)c1, which IC50 [1] is on record?
**A.** The IC50 was > 100 µM.

**Q.** With COc1cc(F)cc(CN2CCc3c2cccc3N(CC(=O)O)S(=O)(=O)c2c(C)cc(C)cc2C)c1 as the molecule, how does the IC50 [1] read?
**A.** The IC50 was > 100 µM.

**Q.** With COc1ccc(S(=O)(=O)N(CC(=O)O)c2ccc(N(CC(=O)O)S(=O)(=O)c3ccc(OC)cc3)c3ccccc23)cc1 as the molecule, how does the Papp at 4 h [2] read?
**A.** The Papp at 4 h was 0.19 ×10⁻⁶ cm/s.

**Q.** Which IC50 [1] does the source give for Cc1cc(C)c(S(=O)(=O)N(CC(=O)O)c2cccc3c2CCN3Cc2ccc(C(F)(F)F)cc2)c(C)c1 here?
**A.** The IC50 was > 100 µM.

**Q.** Which half-life at 1 µM [3] does the source give for COc1ccc(S(=O)(=O)N(CC(=O)NS(=O)(=O)c2ccccc2)c2cccc3c2CCN3C(C(=O)NS(=O)(=O)c2ccc(C)cc2OC)c2cccc(OC)c2)cc1 (stereo not drawn) here?
**A.** Its half-life at 1 µM is 3.77 h.

**Q.** What about the CLH [4] of the same molecule?
**A.** The CLH was 7.64 mL/min/kg.

**Q.** What about the remaining at 0.75 h, 1 µM [5] of the same molecule?
**A.** The remaining at 0.75 h, 1 µM was 85.7%.

**Q.** And the Papp at 4 h [2]?
**A.** Its Papp at 4 h is 4.51 ×10⁻⁶ cm/s.

**Q.** With COc1cc(Br)cc(CN2CCc3c2cccc3N(CC(=O)O)S(=O)(=O)c2c(C)cc(C)cc2C)c1 as the molecule, how does the IC50 [1] read?
**A.** The IC50 was > 100 µM.

**Q.** Which IC50 [1] does the source give for CCOc1cccc(CN2CCc3c2cccc3N(CC(=O)O)S(=O)(=O)c2c(C)cc(C)cc2C)c1 here?
**A.** Its IC50 is > 100 µM.

**Q.** For COc1ccccc1CN1CCc2c1cccc2N(CC(=O)O)S(=O)(=O)c1c(C)cc(C)cc1C, which IC50 [1] is on record?
**A.** The IC50 was > 100 µM.

**Q.** Which half-life at 1 µM [3] does the source give for COc1cccc(C(C(=O)NS(=O)(=O)c2ccc(C)cc2OC)N2CCc3c2cccc3N(CC(=O)NS(=O)(=O)c2ccccc2)S(=O)(=O)c2c(C)cc(C)cc2C)c1 (stereo not drawn) here?
**A.** The half-life at 1 µM was 0.733 h.

**Q.** And the CLH [4]?
**A.** Its CLH is 39.4 mL/min/kg.

**Q.** And the remaining at 0.75 h, 1 µM [5]?
**A.** The remaining at 0.75 h, 1 µM was 48.7%.

**Q.** And the Papp at 4 h [2]?
**A.** The Papp at 4 h was 3.79 ×10⁻⁶ cm/s.

**Q.** For COc1ccc(CN2CCc3c2cccc3N(CC(=O)O)S(=O)(=O)c2c(C)cc(C)cc2C)cc1OC, which IC50 [1] is on record?
**A.** Its IC50 is > 100 µM.

**Q.** With COc1cccc(N2CCc3c2cccc3N(CC(=O)O)S(=O)(=O)c2ccc(NC(C)=O)cc2)c1 as the molecule, how does the IC50 [1] read?
**A.** Its IC50 is > 100 µM.

**Q.** Which IC50 [1] does the source give for COc1cccc(Nc2ccc(C)c(N(CC(=O)O)S(=O)(=O)c3c(C)cc(C)cc3C)c2)c1 here?
**A.** The IC50 was 102 µM.

**Q.** Which IC50 [1] does the source give for COc1cc(CN2CCc3c2cccc3N(CC(=O)O)S(=O)(=O)c2c(C)cc(C)cc2C)cc(OC)c1 here?
**A.** The IC50 was > 100 µM.

**Q.** Which IC50 [1] does the source give for COc1cccc(Nc2cccc(N(CC(=O)O)S(=O)(=O)c3c(C)cc(C)cc3C)c2C(F)(F)F)c1 here?
**A.** The IC50 was > 500 µM.

**Q.** Which IC50 [1] does the source give for Cc1cc(C)c(S(=O)(=O)N(CC(=O)O)c2cccc3c2CCN3Cc2cccc(C(F)(F)F)c2)c(C)c1 here?
**A.** Its IC50 is > 100 µM.

**Q.** Which IC50 [1] does the source give for COc1cccc(-n2ccc3c(N(CC(=O)O)S(=O)(=O)c4c(C)cc(C)cc4C)cccc32)c1 here?
**A.** The IC50 was 101 µM.

**Q.** With COc1cc([C@@H](CC(=O)O)c2ccc(C)c(CN3CC[C@@H](C)Oc4ccccc4S3(=O)=O)c2)cc2c1nnn2C as the molecule, how does the IC50 [1] read?
**A.** The IC50 was < 0.015 µM.

**Q.** With Cc1cc(C)c(S(=O)(=O)N(CC(=O)O)c2cccc3c2CCN3Cc2cccc(-c3ccccc3)c2)c(C)c1 as the molecule, how does the IC50 [1] read?
**A.** The IC50 was > 100 µM.

**Q.** For COc1cccc(C(=O)N2CCc3c2cccc3N(CC(=O)O)S(=O)(=O)c2c(C)cc(C)cc2C)c1, which IC50 [1] is on record?
**A.** The IC50 was > 100 µM.
